# According to patent US9840464B2, “IAP binding compounds” (TetraLogic Birinapant UK Ltd., priority 2004, dated 2017):
# Molecular target: XIAP-BIR3 (Homo sapiens, UniProt P98170)
# Assay: XIAP BIR3 fluorescence polarization binding assay (competition with AbuRPF-K(5-Fam)-NH2)
# Conditions: 5 nM AbuRPF-K(5-Fam)-NH2, 40 nM XIAP-BIR3, pH 7.5; Kd calculated from measured IC50; read-out: KD Range
# Protocol: Binding constants (Kd) were measured using fluorescence polarization as described by Zaneta Nikolovska-Coleska, Renxiao Wang, Xueliang Fang, Hongguang Pan, York Tomita, Peng Li, Peter P. Roller, Krzysztof Krajewski, Naoyuki Saito, Jeanne Stuckey and Shaomeng Wang, in “Development and Optimization of a Binding Assay for the XIAP BIR3 Domain Using Fluorescence Polarization”, Analytical Biochemistry 2004, 332, 261-273). Briefly, test IAP binding compounds at various concentrations for binding measurements were mixed with 5 nM fluorescently labeled peptide (AbuRPF-K(5-Fam)-NH2) and 40 nM of XIAP-BIR3 for 15 minutes at room temperature in 100 μL of 0.1M Potassium Phosphate buffer, pH 7.5 containing 100 μg/ml bovine γ-globulin. Following incubation, the polarization values (mP) were measured on a Victor^2V using a 485 nm excitation filter and a 520 nm emission filter. IC50 values were determined from the plot using nonlinear least-squares analysis using GraphPad Prism. The Kd values of competitive inhibitors were calculated using the equation described by Zaneta Nikolovska-Coleska et al. based upon the measured IC50 values, the Kd value of the probe and XIAP BIR3 complex, and the concentrations of the protein and probe in the competition assay. In various examples of IAP binding or IAP binding cargo molecules ranges for Kd values: Group A: Kd<0.1 μM; Group B: Kd=0.1-1 μM; Group C: Kd=1-10 μM; Group D: Kd>10 μM.
# Chain of XIAP-BIR3 (P98170 241-356 limits assumed): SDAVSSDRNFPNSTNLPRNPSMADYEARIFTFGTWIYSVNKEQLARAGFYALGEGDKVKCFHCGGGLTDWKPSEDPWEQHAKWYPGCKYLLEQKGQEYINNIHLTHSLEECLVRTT
row,Kd,SMILES
1,100 to 1000 nM,"C[C@H](N)C(=O)N[C@H]1Cc2ccc(cc2)OCCCc2oc3ccccc3c2C[C@@H]2CCCN2C1=O [Entry 13-93, Tyrosine-derived Cyclic Ether]"
2,< 100 nM,"CC(=O)n1cc(C[C@@H]2CCCN2C(=O)[C@@H](NC(=O)[C@H](C)N)C(C)C)c2ccccc21 [Entry 14-94, N-{1S-[2S-(1-Acetyl-1H-indol-3-ylmethyl)-pyrrolidine-1-carbonyl]-2-methyl-propyl}-2S-amino-propionamide]"
3,> 10000 nM,CC(=O)n1cc(CC2CCCN2C(=O)C(NC(=O)CN)C(C)C)c2ccccc21 (centres unmarked) [Entry 14-95]
4,100 to 1000 nM,CNC(C)C(=O)NC(C(=O)N1CCCC1Cc1cn(C(C)=O)c2cc(F)ccc12)C(C)(C)C (centres unmarked) [Entry 14-96]
5,100 to 1000 nM,CNC(C)C(=O)NC(C(=O)N1CCCC1Cc1cn(C(C)=O)c2cc(F)ccc12)C1CCCCC1 (centres unmarked) [Entry 14-97]
6,< 100 nM,CC(=O)n1cc(CC2CCCN2C(=O)C(NC(=O)C(C)N)C(C)C)c2cccc(C)c21 (centres unmarked) [Entry 14-98]
7,100 to 1000 nM,"CC(C)[C@H](NC(=O)[C@H](C)N)C(=O)N1CCC[C@H]1Cc1c[nH]c2ccccc12 [Entry 14-99, 2S-Amino-N-{1S-[2S-(1H-indol-3-ylmethyl)-pyrrolidine-1-carbonyl]-2-methyl-propyl}-propionamide]"
8,< 100 nM,Cc1cccc2c(CC3CCCN3C(=O)C(NC(=O)C(C)N)C(C)C)c[nH]c12 (centres unmarked) [Entry 14-100]
9,> 10000 nM,CC(NC(=O)OC(C)(C)C)C(=O)NC(C(=O)N1CCCC1Cc1cn(C(=O)OC(C)(C)C)c2ccccc12)C(C)C (centres unmarked) [Entry 14-101]
10,100 to 1000 nM,CC#CCn1cc(CC2CCCN2C(=O)C(NC(=O)C(C)N)C(C)C)c2ccccc21 (centres unmarked) [Entry 14-102]
11,< 100 nM,C#CCn1cc(CC2CCCN2C(=O)C(NC(=O)C(C)N)C(C)C)c2ccccc21 (centres unmarked) [Entry 14-103]
12,100 to 1000 nM,CNC(C)C(=O)NC(C(=O)N1CCCC1Cc1c[nH]c2cc(F)ccc12)C1CCCCC1 (centres unmarked) [Entry 14-104]
13,< 100 nM,CNC(C)C(=O)NC(C(=O)N1CCCC1Cc1c(-c2cccs2)[nH]c2cc(F)ccc12)C(C)(C)C (centres unmarked) [Entry 15-108]
14,100 to 1000 nM,"CNC(C)C(=O)NC(C(=O)N1CCCC1Cc1cn(CCOCCOCCOC)c2cc(F)ccc12)C1CCCCC1 (centres unmarked) [Entry 16-109, N-{1-Cyclohexyl-2-[2-(6-fluoro-1-{2-[2-(2-methoxy-ethoxy)-ethoxy]-ethyl}-1H-indol-3-ylmethyl)-pyrrolidin-1-yl]-2-oxo-ethyl}-2-methylamino-propionamide]"
15,100 to 1000 nM,CCC(NC)C(=O)NC(C(=O)N1CCCC1Cc1cn(CCOCCOCCOC)c2ccccc12)C1CCCCC1 (centres unmarked) [Entry 16-110]
16,100 to 1000 nM,CNC(C)C(=O)NC(C(=O)N1CCCC1Cc1cn(CCOCCOCCOC)c2ccccc12)C1CCCCC1 (centres unmarked) [Entry 16-111]
17,< 100 nM,CNC(C)C(=O)NC(C(=O)N1CCCC1Cc1c(Br)n(CCOCCOCCO)c2cc(F)ccc12)C(C)(C)C (centres unmarked) [Entry 16-112]
18,< 100 nM,CNC(C)C(=O)NC(C(=O)N1CCCC1Cc1c(Br)n(CCOCCOCCOC)c2cc(F)ccc12)C(C)(C)C (centres unmarked) [Entry 16-113]
19,< 100 nM,CNC(C)C(=O)NC(C(=O)N1CCCC1Cc1c(-c2cccs2)n(CCOCCOCCOC)c2cc(F)ccc12)C(C)(C)C (centres unmarked) [Entry 16-114]

# Continued, molecule first:
row,SMILES,Kd
1,"COc1ccc2occ(CC3CCCN3C(=O)C(NC(=O)C(C)N)C(C)C)c2c1 (centres unmarked) [Entry 7-76, 2-Amino-N-{1-[2-(5-methoxy-benzofuran-3-ylmethyl)-pyrrolidine-1-carbonyl]-2-methyl-propyl}-propionamide]",1000 to 10000 nM
2,CC(N)C(=O)NC(C(=O)N1CCCC1Cc1coc2ccc(OCC3CC3)cc12)C(C)C (centres unmarked) [Entry 7-77],> 10000 nM
3,CC(N)C(=O)NC(C(=O)N1CCCC1Cc1coc2ccc(-c3ccncc3)cc12)C(C)C (centres unmarked) [Entry 8-78],100 to 1000 nM
4,CC(N)C(=O)NC(C(=O)N1CCCC1Cc1c(Br)oc2ccccc12)C(C)C (centres unmarked) [Entry 9-80],100 to 1000 nM
5,"CC(C)[C@H](NC(=O)[C@H](C)N)C(=O)N1CCC[C@H]1Cc1c(-c2ccncc2)oc2ccccc12 [Entry 9-81, 2S-Amino-N-{2-methyl-1S-[2S-(2-pyridin-4-yl-benzofuran-3-ylmethyl)-pyrrolidine-1-carbonyl]-propyl}-propionamide]",< 100 nM
6,CC(N)C(=O)NC(C(=O)N1CCCC1Cc1c(-c2cccnc2)oc2ccccc12)C(C)C (centres unmarked) [Entry 9-82],100 to 1000 nM
7,CC(N)C(=O)NC(C(=O)N1CCCC1Cc1c(-c2nccs2)oc2ccccc12)C(C)C (centres unmarked) [Entry 9-85],100 to 1000 nM
8,CC(N)C(=O)NC(C(=O)N1CCCC1Cc1c(-c2cnccn2)oc2ccccc12)C(C)C (centres unmarked) [Entry 9-86],< 100 nM
9,CC(N)C(=O)NC(C(=O)N1CCCC1Cc1c(-c2ccccc2)[nH]c2ccccc12)C(C)C (centres unmarked) [Entry 9-88],1000 to 10000 nM
10,"CCOC(=O)CCc1oc2ccccc2c1CC1CCCN1C(=O)C(NC(=O)C(C)N)C(C)C (centres unmarked) [Entry 10-89, 3-(3-{1-[2-(2-Amino-propionylamino)-3-methyl-butyryl]-pyrrolidin-2-ylmethyl}-benzofuran-2-yl)-propionic acid ethyl ester]",1000 to 10000 nM
11,CC(N)C(=O)NC(C(=O)N1CCCC1Cc1c(CCC(=O)O)oc2ccccc12)C(C)C (centres unmarked) [Entry 10-90],100 to 1000 nM
12,"C[C@H](N)C(=O)N[C@H]1CCCNC(=O)CCc2oc3ccccc3c2C[C@@H]2CCCN2C1=O [Entry 11-91, Ornithine-derived Lactam]",100 to 1000 nM
13,CC(N)C(=O)NC1CCCCNC(=O)CCc2oc3ccccc3c2CC2CCCN2C1=O (centres unmarked) [Entry 12-92],1000 to 10000 nM
14,"Cc1ccc(S(=O)(=O)n2cc(C[C@@H]3CCCN3C(=O)[C@@H](NC(=O)[C@H](C)N)C(C)C)c3ccccc32)cc1 [Entry 15-107, 2S-Amino-N-(2-methyl-1S-{2S-[1-(toluene-4-sulfonyl)-1H-indol-3-ylmethyl]-pyrrolidine-1-carbonyl}-propyl)-propionamide]",< 100 nM

# Tested on: SK-OV-3 cells
# Assay: MTT cell growth/survival assay
# Format: cell-based
# Conditions: Homo sapiens, 72 hrs incubation, drug concentration that results in 50% cell survival
# Protocol: The MTT assay is an example of an assay that has been used for measuring cell growth as previously described (Hansen, M. B., Nielsen, S. E., and Berg, K. J. Immunol. Methods 1989, 119, 203-210) and incorporated herein by reference in its entirety. Briefly, SK-OV-3 cells were seeded in 96-well plates in McCoy's medium containing 10% fetal bovine serum […] (20,000 per well) and incubated overnight at 37° C. Next day, test compounds were added at various concentrations typically from about 10 to about 0.0001 μM and the plates were incubated at 37° C. for an additional 72 hrs. This incubation time was optimal for measuring inhibitory effects of different analogs. 50 microliters of 5 mg/mL MTT reagent to each well was added and the plates were incubated at 37° C. for 3 hours. At the end of incubation period, 50 microliters of DMSO was added to each well to dissolve cells and the optical density (OD) of the wells was measured with a microplate reader (Victor^2 1420, Wallac, Finland) at 535 nm. Cell survival (CS) was calculated by the following equation: CS=(OD treated well/mean OD control wells)×100%
# The EC50, defined as the drug concentration that results in 50% CS, was derived by calculating the point where the dose-response curve crosses the 50% CS point using GraphPad Prism.
row,SMILES,EC50
1,CNC(C)C(=O)NC(C(=O)N1CCCC1Cc1c[nH]c2cc(F)ccc12)C1CCCCC1 (centres unmarked) [Entry 14-104],0.515 ± 0.093 µM
2,"CNC(C)C(=O)NC(C(=O)N1CCCC1Cc1cn(CCOCCOCCOC)c2cc(F)ccc12)C1CCCCC1 (centres unmarked) [Entry 16-109, N-{1-Cyclohexyl-2-[2-(6-fluoro-1-{2-[2-(2-methoxy-ethoxy)-ethoxy]-ethyl}-1H-indol-3-ylmethyl)-pyrrolidin-1-yl]-2-oxo-ethyl}-2-methylamino-propionamide]",0.06 ± 0.026 µM
